Assays:
[1] = system: afterdischarge-like spike activity; experiment: Chronic focal epilepsy assay (cobalt powder on frontal cortex, EEG); format: in vivo; conditions: intraperitoneal, rat
Source text: In a model of chronic focal epilepsy where cobalt powder is placed on rat frontal cortex, the animals develop, after several days, chronic expression of afterdischarge-like spike activity which can be recorded by EEG.

[2] = system: 3-mercaptopropionic acid (3-MPA)-induced convulsions; experiment: 3-MPA-induced convulsions, protection of mice; format: in vivo, male Swiss albino mice; conditions: 3-MPA 120 mg/kg s.c.; for Number of Mice Protected From 3-MPA-Induced Convulsions: total protected of two groups of 5 mice
Description: (§1) Treatment of a mammal afflicted by or susceptible to certain CNS disorders is accomplished by administration of a therapeutically-effective amount of a compound of Formula I. In particular, Compounds #1-19 of Tables I and II were evaluated by in vitro and in vivo animal model assays to determine the pharmacological properties of such compounds and their likely suitability for use as therapeutic drugs in humans. These biological assays, as described below, consisted of prevention of induced convulsions in mice, determination of acute toxicity in mice and animal behavior assays. Except as otherwise specified, the animals used in the in vivo tests were male Swiss albino mice weight 22 to 33 g [CD1, Charles River, France], housed in groups of 10 on a 12-hour dark-light cycle for at least one week before use and fasted overnight prior to testing.
Compounds of Formula I were evaluated as inhibitors of convulsions and death induced by different convulsant agents: 3-mercaptopropionic acid (3-MPA; 120 mg/kg subcutaneously), pentylenetetrazole (PTZ, 55 mg/kg intravenously) and supramaximal electroconvulsive shocks (ECS evoked by a current intensity of 48 mA, 50 Hz. 0.2 sec duration, 10 msec square pulse, corneal electrodes) [W. van Dorsser, D. Barris, A. Cordi and J. Roba, Arch. Int. Pharmacodyn., 266, 239-249 (1983)]. The compounds of the invention were administered orally at a dosage of either 100 mg/kg or 30 mg/kg in a volume of 10 ml/kg each to 5 mice at intervals of 30 minutes or 2 hours before convulsions were induced. The number of mice protected against tonic convulsions and the number of dead mice were noted. Results are given in Table III as a score which represents the total number of mice protected for two groups of 5 animals (3-MPA).
(§2) Based upon data generated from the previously-described anti-convulsant experiments, ED50 values were calculated at which Compound #18 inhibits convulsions induced by the convulsant agents listed in Table V.

[3] = system: supramaximal electroconvulsive shocks (ECS)-induced convulsions; experiment: Supramaximal electroconvulsive shock (ECS) induced convulsions; format: in vivo, male Swiss albino mice; conditions: Mus musculus; oral; ECS 48 mA, 50 Hz, 0.2 sec; read-out: Inhibition of Convulsions (ED50), ECS
Description: (§3) Treatment of a mammal afflicted by or susceptible to certain CNS disorders is accomplished by administration of a therapeutically-effective amount of a compound of Formula I. In particular, Compounds #1-19 of Tables I and II were evaluated by in vitro and in vivo animal model assays to determine the pharmacological properties of such compounds and their likely suitability for use as therapeutic drugs in humans. These biological assays, as described below, consisted of prevention of induced convulsions in mice, determination of acute toxicity in mice and animal behavior assays. […]
(§4) Compounds of Formula I were evaluated as inhibitors of convulsions and death induced by different convulsant agents: 3-mercaptopropionic acid (3-MPA; 120 mg/kg subcutaneously), pentylenetetrazole (PTZ, 55 mg/kg intravenously) and supramaximal electroconvulsive shocks (ECS evoked by a current intensity of 48 mA, 50 Hz. 0.2 sec duration, 10 msec square pulse, corneal electrodes) [W. van Dorsser, D. Barris, A. Cordi and J. Roba, Arch. […]
as §2

[4] = system: 5HTP-induced head twitch; experiment: 5HTP-induced head twitch; format: in vivo, mice
Description: as §1
Compound #18 was evaluated for inhibition of head twitches produced in mice by administration of L-5-hydroxytryptophan (5HTP, 10 mg/kg intraperitoneously) after nialamide treatment (50 mg/kg intraperitoneal, 22 hours before the test). The head twitches were counted for 45 min. starting 15 min. after 5HTP administration. [E. Friedmann & al.; Europ. J. Pharmocol., 89, 69-76 (1983)].

[5] = system: hypomotility induced by the α2 agonist clonidine; experiment: Clonidine-induced hypomotility; format: in vivo; conditions: 10 mg/kg; clonidine 150 mg/kg i.p.; eight mice, 90 min after clonidine
Description: as §1
Given alone, clonidine inhibits spontaneous locomotor and rearing activity. Eight test mice were treated with Compound #18 and subsequently with clonidine ([…], intraperitoneal). Then, 90 min. after clonidine administration the mice were placed in a rectangular open field of 47×53 cm, having a floor divided into 36 boxes of about 8×9 cm. The number of boxes through which the animal goes in 3 min. and the number of rearing episodes were noted.

[6] = Acute toxicity after oral administration; conditions: mouse, in vivo, mice, mortality over 15 days
Description: as §1
(§5) The acute toxicity of compounds of the invention was determined after oral administration of the test compound to mice. Compound to be tested was suspended in a 1% tragacanth gum mucilage, and was administered by means of an intragastric probe to a group of three male mice, which doses varied from 3,000 mg/kg down to about 3 mg/kg. Doses used in the test were determined by observing toxic effects on the mice. The mortality was recorded over a period of 15 days. The LD50 results reported in Table V were calculated according to published methods [Lichtfield and Wilcoxon, J. Pharmacol. Exp. Ther., 96, 99 (1949)] and expressed in mg or test compound per kilogram of mouse body weight.

[7] = system: mice; design: species or system male Swiss albino mice; conditions: mouse, in vivo, po
Description: as §1, §5
Behavioral effects of compounds of the invention on animals were determined by observations taken at 5 to 6 hours and at 24 hours after administration of compounds in the acute toxicity studies. Determinations were made based on a method derived from that of S. Irwin [See R. A. Turner, Screening Methods in Pharmacology, Chapter 3, pages 22-34, Academic Press, N.Y. (1965)]. If an anomaly were noted, the observation was extended and smaller doses were tested. Possible types of behavior to be observed are as follows: analgesia (AAG), convulsions (CON), depression (DEP), exophthalmia (EOP), excitation (EXC), hyperalgesia (HAG), hypothermia (ATH), hypotonia (ATN), piloerection (PIE), palpebral ptosis (PTO), reduction of the pinna reflex (RPI), reduction of the rearing reflex (RRE), reduction of the flexion reflex (RRF), sedation (SED), tremors (TRE), cyanosis (CYA), diarrhea (DIA), increase of the pinna reflex (HPI), increase of the flexion reflex (HRF), dyspnea (DYS). Behaviors observed are reported in Table IV by numbers which represent the dose at which the behavior is observed.

[8] = system: pentylenetetrazole (PTZ)-induced convulsions; experiment: Pentylenetetrazole (PTZ) induced convulsions; format: in vivo, male Swiss albino mice; conditions: Mus musculus; oral; PTZ 55 mg/kg i.v.; read-out: Inhibition of Convulsions (ED50), PZT
Description: as §3, §4, §2

## NC(=O)CNC(c1ccccc1)c1ccccc1 [Compound 18, 2-diphenylmethylaminoacetamide]
[1]; threshold dose of 50 mg/kg
  time over which inhibition of spike activities was observed: 14 to 90 min
[1]; ip, read-out: threshold dose for inhibiting spike activities
  minimal effective dose: 50 mg/kg
[2]; Mus musculus, oral, read-out: Inhibition of Convulsions (ED50), 3-MPA
  ED50: 9.3 mg/kg
[2]; oral 30 mpk, interval 30 min
  Number of Mice Protected From 3-MPA-Induced Convulsions: 9 mice
[2]; oral 100 mpk, interval 30 min
  Number of Mice Protected From 3-MPA-Induced Convulsions: 10 mice
[2]; oral 100 mpk, interval 2 hr
  Number of Mice Protected From 3-MPA-Induced Convulsions: 10 mice
[3]
  ED50: 26 mg/kg
[4]; Mus musculus, po, 2 hours before 5HTP (10 mg/kg i.p.), nialamide pretreated mice, read-out: ED50 for inhibition of 5HTP-induced head twitches
  ED50: 10 mg/kg
[4]; mice, nialamide treatment
  effect on 5HTP-induced head twitch: inhibited 5HTP-induced head twitch
[5]
  effect on clonidine-induced hypomotility: seems unable to alter the hypomotility
[6]
  LD50 at 360 h: 1020 mg/kg
[7]
  Behavior: dose at which depression (DEP) is observed: 1000 mg/kg
  Behavior: dose at which palpebral ptosis (PTO) is observed: 1000 mg/kg
[8]
  ED50: 66 mg/kg
